In patent US5723439A (priority 1991, dated 1998):

System: influenza A/Aichi/2/68 (H3N2) virus
Format: in vivo, mice
Conditions: intraperitoneal 15,000 KIU/mouse/day, 5-6 injections daily for 7 days

With aprotinin the “protective effect (survival)” value was 30%.
